Laboratory results as given in patent US20220110331A1, “COMPOSITION FOR PROMOTING GROWTH OF EFFECTIVE MICROORGANISM AND CONTROLLING PLANT DISEASE USING PREBIOTICS, AND USE THEREOF” (priority 2018, published 2022).

How the values were obtained:
[1] = test system: Streptomyces badius SP6C4 strain; test: Amino acid preference of effective microorganism on Biolog PM3B nitrogen source plate (redox dye colour); assay type: cell-based; conditions: 72 hours at 28° C., then dye and culture at 37° C. for 24 and 48 hours, naked eye
Procedure: Single colony of Streptomyces badius SP6C4 strain with deposit number of KCCM11703P was inoculated by streaking on MS medium (containing 20 g of mannitol, 20 g of soya, and 20 g of agar in 1 liter distilled water) and cultured for 7 days at 28° C. […] Thus-completed spore stock was diluted in sterile water, and, after adjusting the concentration to OD595 of 0.2±0.02, carrageenan stock (0.2% carrageenan and 50 mL distilled water) was prepared. The spore stock (1.5 mL) was admixed with 0.2% carrageenan stock (13.5 mL) and then the mixture (100 μl) was aliquoted onto a biolog plate (PM3B MICROPLATE™ Nitrogen Sources) followed by sealing the plate with a transparent film sheet. After 72 hours at 28° C., Redox dye mix MA (Biolog, Hayward, Calif.) was aliquoted to each well (10 μl per well) and sealed with a transparent film and a wrap to block the incorporation of CO2 from outside. Culture was carried out at 37° C. for 24 hours and 48 hours, respectively. […] Determination was made based on the assumption that stronger purple color corresponds to higher growth of the microorganism.

gray mold = test: Strawberry field test, incidence rate of gray mold; assay type: in vivo, Botrytis cinerea; conditions: foliar application of 2% amino acid; for incidence rate of gray mold: 8 treatments with interval of 2 weeks, non-treatment group 35%; for incidence rate of gray mold (in words): 8 treatments, decreased in order of glutamic acid, proline, tryptophan
Procedure: (§1) Specifically, the test was carried out with an interval of 2 weeks during the cultivation period of strawberry. Length of 5M was set as a single section and foliar application was performed for three sections. For each section, 100 strawberries were randomly selected and incidence rate of the disease was determined. As a treatment process, each amino acid was diluted to concentration of 2% in 15 liter distilled water, and the mixture (5 liter) was applied to each section. The treatment was carried out 8 times with an interval of 2 weeks.

bloom blight = test: Strawberry field test, incidence rate of bloom blight; assay type: in vivo, Cladosporium cladosporioides; conditions: foliar application of 2% amino acid, 8 treatments with interval of 2 weeks, non-treatment group up to 50%
Procedure: as §1

Fusarium oxysporum [2] = test: Wilt disease control after coating tomato seeds with glutamic acid; assay type: in vivo; conditions: tomato seeds coated with 2% glutamic acid and 0.1% CMC, then pathogen; Day 3 (Early time) and Day 10 (Late time); pathogen only about 50% and 100%
Procedure: By using a concentrate of glutamic acid (20% (w/v)) and a concentrate of CMC (carboxyl methyl cellulose) (1% (w/v)) as a spreader, a mixture solution was prepared such that they have concentration of 2% and 0.1%, respectively. Forty to fifty tomato seeds of which surfaces have been sterilized with 70% (v/v) ethanol and 1% (v/v) sodium hypochlorite were added to 1 mL of the mixture solution and dried for 12 hours in a sterile bench at room temperature condition. After that, the coated seeds were planted to a square pot (3 cm×3 cm), 1 to 2 seeds per pot. Fusarium oxysporum spores as wilt pathogen were added in an amount of 3 mL with concentration of 10^5×1.0 CFU/mL. The treatment group obtained after completing pathogen inoculation to the seeds was transferred to a plant growth chamber which is set at 28° C. for 16 hours of light period and 25° C. for 8 hours of dark period. On Day 3 (Early time) and Day 10 (Late time) after transfer to a plant growth chamber, the incidence rate of wilt disease was examined. As a control, a non-treatment group and a group treated only with the pathogen were examined, each repeated 10 times.

Fusarium oxysporum [3] = test: Wilt disease control after treating underground part of tomato plant with glutamic acid; assay type: in vivo; conditions: 2% glutamic acid solution 20 mL applied 2 times to tomato plant
Procedure: To a tomato plant grown to have aboveground part of 8 to 10 cm, 2% glutamic acid solution was applied 2 times, in an amount of 20 mL with an interval of 5 days. […] A wound was created, by using a 5 mL tip, on the underground part of plant which has been treated twice with glutamic acid for 10 days, and then the spore suspension (10 mL) was applied to a pot with diameter of 9 cm. The plant inoculated with the pathogen was transferred to a plant growth chamber which is set at 28° C. for 16 hours of light period and 25° C. for 8 hours of dark period. Then, the incidence rate of disease was determined with an interval of 1 week. As a control, a group treated only with the pathogen and a plant not treated with any were tested, each repeated 5 times.

[4] = test system: Streptomyces badius SP6C4 strain; test: Maintenance of density of effective microorganism on strawberry flowers after amino acid treatment (qPCR of lanM gene); assay type: in vivo; conditions: continuously maintained except the first treatment out of 8 treatments
Procedure: To determine whether or not the density of effective microorganism is maintained even after a treatment of the amino acids, three strawberry flowers were collected, 3 times repeatedly, in each treatment period during which the test of inhibiting gray mold by the strawberry field test of Example 3 is carried out. After transfer to the lab under cold storage, 3 flowers were added to 30 mL of 1×PBS buffer and subjected to an ultrasonication treatment for 10 minutes. 3 mL of the supernatant was centrifuged for 10 minutes at a rate of 13,000 rpm, 1 mL of the resulting supernatant was discarded, and the pellet was dissolved in the remaining supernatant (2 mL). 500 μl of the mixture was admixed with 500 μl CTAB buffer followed by DNA purification. Each DNA was subjected to qPCR (quantitative polymerase chain reaction) by using lanM gene specific primers of Streptomyces badius SP6C4 strain (forward direction: 5′-gtacggatctgcaccacga-3′ (SEQ ID NO: 1), reverse direction: 5′-[…]-3′ (SEQ ID NO: 2)).

[5] = test system: Streptomyces badius SP6C4 strain; test: Growth promotion of effective microorganism by amino acids (OD600); assay type: cell-based; conditions: fifth day of culture, 10 μl of amino acids at 2% added, 28° C.; basal medium control OD600 0.5
Procedure: To 10 μl of a spore stock of Streptomyces badius SP6C4 strain (10^5 cfu/mL), 80 μl of sterile water was added. After mixing with 10 μl of amino acids at concentration of 2%, the strain was cultured in a shaking incubator at a condition of 28° C. Growth of SP6C4 strain was examined by OD600 for 5 days with an interval of 24 hours.

Row | Compound | color change with Redox dye (stronger purple color corresponds to higher growth of the microorganism) [1] | incidence rate of gray mold (gray mold) | incidence rate of gray mold (in words) (gray mold) | also measured
1 | C[C@H](N)C(=O)O [alanine] | darkest purple color | – | – | –
2 | N=C(N)NCCC[C@H](N)C(=O)O [arginine] | darkest purple color | – | – | –
3 | NC(=O)C[C@H](N)C(=O)O [asparagine, reference compound] | – | about 25% | – | incidence rate of bloom blight (bloom blight): up to 40%
4 | N[C@@H](CCC(=O)O)C(=O)O [glutamic acid] | darkest purple color | less than 15% | – | incidence rate of wilt disease (Fusarium oxysporum [2]): wilt disease does not occur; incidence rate of disease (wilt) (Fusarium oxysporum [3]; for 2 weeks after the initial pathogen treatment): no significant difference; incidence rate of disease (wilt) (Fusarium oxysporum [3]; from the week 4, pathogen only 100%): less than 15%; microorganism concentration (SP6C4 on strawberry flowers) [4]: ≥ 10^5 cfu/mL; OD600 (growth of SP6C4 strain) [5]: 1.8
5 | O=C(O)[C@@H]1CCCN1 [proline] | – | – | incidence rate has decreased | –
6 | N[C@@H](Cc1c[nH]c2ccccc12)C(=O)O [tryptophan] | – | – | incidence rate has decreased | –
